Measurements from patent US6313180A, “Steroid compounds having contraceptive and anti-osteoporosis activity” (priority 1997, dated 2001).
Like-named read-outs stand apart in the source and are kept apart here.

Assays:
[1] = system: human progesterone (P) receptor; assay: Relative progesterone receptor binding affinity, cytoplasmic receptors of MCF-7 cells; settings: relative to (16α)-16-ethyl-21-hydroxy-19-norpregn-4-ene-3,20-dione, 16 h, 4° C
[2] = McPhail test for progestagenic activity in vivo; settings: read-out: McPhail ED50
ovariectomised rats = assay: Prevention of ovariectomy-induced bone loss in rats (anti-osteoporosis test, pQCT trabecular bone mineral density); format: in vivo, rat (female Wistar); settings: Rattus norvegicus, 672 h, read-out: Osteoporosis ED50
Excerpt: Ovariectomy induces in rats bone loss, which is due to oestrogen deficiency. Administration of oestrogenic compounds prevents this effect. The test is used to evaluate a compound for anti-osteoporotic activity in ovariectomised rats. The effect on bone mass can be evaluated by peripheral Quantitave Computed Tomography (pQCT) measurement of trabecular bone mineral density.
Mature virgin female Wistar rats preferentially, 225-250 g. Strain: Hsd/Cpd:Wu, SPF-bred by Harlan, CPB, Zeist, The Netherlands.
On day 1 of the experiment the rats are weighed and distributed over the cages in order of body weight. The rat with the lowest body weight in the first cage and the heaviest rat in the last cage. Treatments are randomized over the rats per block. A block (group of 3+n treatments) consists of 1 Intact placebo rat, 1 OVX placebo rat, 1 OVX reference rat and 1 rat of each n treatments.
Sham-operation and ovariectomy are performed under ether anaesthesia. After recovery from the anaesthesia, within 24 h, vehicle, reference compound or test compound is administered once or twice daily for 4 weeks.
Trabecular bone mineral density (mg/cm^3) of the metaphyseal part of the femur was measured with a pQCT (peripheral Quantitative Computed Tomography machine; XCT 960A, Stratec, Birkenfeld, Germany) directly after autopsy on fresh tissue. Two 360° scans, which have, due to the X-ray beam, a standard thickness of 1 mm were taken. The scans have a resolution of 0.148×0.148 mm. One scan was taken at 5.5 mm from the distal end of the femur, where trabecular bone mineral density of the metaphyseal part was measured. The other scan was taken in the diaphysis at 13.5 mm from the distal end, which contains no trabecular bone. In the latter scan cortical bone mineral density and the geometrical parameters, such as cortical thickness, total bone area, outer and inner diameter, were determined. Intra- and inter-assay variation for the measurement of trabecular bone mineral density in the distal femur were about 2-3%. The XCT-960A was calibrated with a standard of hydroxyapatite embedded in acrylic plastic.
Ovariectomy causes a statistically significant decrease in trabecular bone mineral density (P≤0.05, 2 way ANOVA).
The active dose (ED50) is the dose where a mean proportional difference in trabecular bone mineral density between 40 and 60% is reached as compared to the sham and ovariectomised group.
(§1) Several of the compounds according to the Examples I-VI, as well as other compounds according to the invention synthesized in analogous manner, were subjected to the tests described in the Examples VII and VIII. The results are described in the Table, in which the type of A-ring and the substitution at carbon atoms nos. 7, 11, and 17 is indicated. In the columns captioned E and P, the relative binding affinities for the estrogen and progesterone receptors are given; the ED50 results of the AllenDoisy and the McPhail tests have been indicated in μg/kg. In the column captioned "Osteoporosis", the ED50 results of the anti-osteoporosis test are given (dose in μg/kg, day, as described above).

[3] = Allen Doisy test for estrogenic activity in vivo; settings: read-out: AllenDoisy ED50
[4] = target: T1, human estradiol (E) receptor (Homo sapiens, UniProt P03372); format: binding
T1 construct: present in human breast tumor cells (MCF-7 cells); endogenous in cells; host or cells: MCF-7 human breast tumor cells
T1 sequence (P03372 1-595): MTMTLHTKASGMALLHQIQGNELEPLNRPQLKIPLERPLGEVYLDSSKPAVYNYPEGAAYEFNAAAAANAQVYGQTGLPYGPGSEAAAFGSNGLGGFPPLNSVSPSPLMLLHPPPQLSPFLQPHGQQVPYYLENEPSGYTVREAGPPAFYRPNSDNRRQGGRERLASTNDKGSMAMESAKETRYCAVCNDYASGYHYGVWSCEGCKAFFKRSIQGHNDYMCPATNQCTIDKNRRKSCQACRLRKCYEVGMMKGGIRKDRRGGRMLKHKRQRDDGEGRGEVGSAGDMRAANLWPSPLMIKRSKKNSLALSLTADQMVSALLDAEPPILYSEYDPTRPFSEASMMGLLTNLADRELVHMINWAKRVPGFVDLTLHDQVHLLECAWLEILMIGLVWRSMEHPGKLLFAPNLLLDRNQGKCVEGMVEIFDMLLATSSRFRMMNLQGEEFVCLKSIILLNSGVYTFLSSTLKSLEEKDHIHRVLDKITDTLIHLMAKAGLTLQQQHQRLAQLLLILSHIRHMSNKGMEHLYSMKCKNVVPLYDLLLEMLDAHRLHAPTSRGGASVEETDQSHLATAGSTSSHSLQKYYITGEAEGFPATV
Method: The relative estradiol receptor binding affinity was measured in the same manner as described above but using 17βestradiol as a reference.
as §1

[5] = oral administration, progestagenic activity
[6] = oral administration, estrogenic activity
[7] = oral administration, ovariectomised rats, once or twice daily for 4 weeks, 40-60% proportional difference in trabecular bone mineral density

Row | SMILES | Relative binding affinity to the human progesterone (P) receptor [1] [%] | ED50 ([2]; po) [mg/kg] | ED50 (ovariectomised rats; po) [mg/kg] | ED50 ([3]; po) [mg/kg] | ED50 [2, 5] [mg/kg] | Relative binding affinity to the human estradiol (E) receptor [4] [%] | ED50 [3, 6] [mg/kg] | ED50 (ovariectomised rats; [7]) [mg/kg]
1 | C[C@]12CC[C@H]3[C@@H](CCC4=CC(=O)CC[C@@H]43)[C@@H]1C[C@H]1CCCC[C@]12O [Code 37518] | 115 | 0.125 | > 2 | > 4 | – | – | – | –
2 | CCC[C@@H]1C[C@@H]2C[C@H]3[C@@H]4CCc5cc(O)ccc5[C@H]4CC[C@]3(C)[C@]2(O)C1 [Code 37968] | 6 | – | – | – | > 4 | 1 | > 1 | –
3 | C[C@]12CC[C@@H]3C4=C(CC[C@H]3[C@@H]1C[C@H]1CCCC[C@]12O)CC(=O)CC4 [Code 37516] | 13 | – | – | – | 1 | – | > 4 | > 2
4 | CCC[C@@H]1CC2=CC(=O)CC[C@@H]2[C@H]2CC[C@@]3(C)[C@@H](C[C@H]4C[C@@H](C)C[C@]43O)[C@H]12 [Code 38550] | 36 | – | – | – | > 0.125 | – | 0.125 | 0.125
5 | CCC[C@H]1C[C@@H]2C[C@H]3[C@@H]4CCC5=CC(=O)CC[C@@H]5[C@H]4CC[C@]3(C)[C@]2(O)C1 [Code 37977] | 151 | 0.5 | > 1 | > 4 | – | – | – | –
6 | C[C@H]1C[C@@H]2C[C@H]3[C@@H]4[C@H](C)Cc5cc(O)ccc5[C@H]4CC[C@]3(C)[C@]2(O)C1 [Code 37893] | 11 | – | – | – | > 4 | 38 | 0.5 | 0.5
7 | CCC[C@H]1C[C@H]2C[C@H]3[C@@H]4[C@H](C)Cc5cc(O)ccc5[C@H]4CC[C@]3(C)[C@@]2(O)C1 [Code 38079] | 1 | – | – | – | – | < 1 | > 4 | –
8 | CCCC[C@@H]1C[C@@H]2C[C@H]3[C@@H]4CCC5=CC(=O)CC[C@@H]5[C@H]4[C@@H](C)C[C@]3(C)[C@]2(O)C1 [Code 38276, (4'R,11-beta,16-beta-17-beta)-4'-butyl-4',5',16,17-tetrahydro-17-hydroxy-11-methyl-3'H-cyclopenta[16,17]estra-4,16-dien-3-one] | 115 | – | – | – | 0.125 | – | > 0.5 | > 1
9 | C[C@H]1C[C@@]2(C)[C@@H](C[C@H]3C[C@H](CN=[N+]=[N-])C[C@]32O)[C@@H]2CCC3=CC(=O)CC[C@@H]3[C@H]21 [Code 38322] | 44 | – | – | – | 0.063 | – | > 0.5 | > 1
10 | C[C@H]1C[C@@H]2C[C@H]3[C@H]4[C@H](CC[C@]3(C)[C@]2(O)C1)[C@H]1CCC(=O)C=C1C[C@H]4C [Code 38049] | 250 | 1 | > 1 | > 2 | – | – | – | –
11 | CCC[C@@H]1Cc2cc(O)ccc2[C@H]2CC[C@@]3(C)[C@@H](C[C@@H]4C[C@@H](C)C[C@@]43O)[C@H]12 [Code 38513] | – | – | – | – | > 0.125 | 0.2 | 2 | –
12 | CCC[C@@H]1Cc2cc(O)ccc2[C@H]2CC[C@@]3(C)[C@@H](C[C@H]4C[C@H](C)C[C@]43O)[C@H]12 [Code 38481, (4'S,7-alpha,16-beta, 17-beta)-3',4',5',16-tetrahydro-4'-methyl-7-propyl-17H-cyclopenta[16,17]estra-1,3,5(10)-trien-3,17-diol] | 6 | – | – | – | > 4 | 23 | 0.064 | 0.125
13 | C[C@H]1C[C@@H]2C[C@H]3[C@@H]4CCC5=CC(=O)CC[C@@H]5[C@H]4CC[C@]3(C)[C@]2(O)C1 [Code 38541] | 58 | 0.125 | > 1 | > 0.5 | – | – | – | –
14 | C[C@@H]1Cc2cc(O)ccc2[C@H]2CC[C@@]3(C)[C@@H](C[C@H]4CCCC[C@]43O)[C@H]12 [Code 37828] | 10 | – | – | – | – | 11 | 0.192 | 0.5
15 | CC[C@H]1C[C@@]2(C)[C@@H](C[C@H]3CCCC[C@]32O)[C@@H]2CCc3cc(O)ccc3[C@@H]12 [Code 37862] | 2 | – | – | – | – | 96 | 0.032 | < 0.016
16 | CCC[C@H]1C[C@@H]2C[C@H]3[C@@H]4CCC5=CC(=O)CC[C@@H]5[C@H]4[C@@H](CC)C[C@]3(C)[C@]2(O)C1 [Code 38577] | 139 | – | – | – | > 0.5 | – | 0.192 | 0.25
17 | CC[C@H]1C[C@@]2(C)[C@@H](C[C@H]3CCCC[C@]32O)[C@@H]2CCC3=CC(=O)CC[C@@H]3[C@@H]12 [Code 37943] | 96 | 1 | 0.4 | 0.192 | – | – | – | –
18 | CC[C@H]1C[C@@H]2C[C@H]3[C@@H]4CCC5=CC(=O)CC[C@@H]5[C@H]4[C@@H](CC)C[C@]3(C)[C@]2(O)C1 [Code 38610] | 0.3 | – | – | – | > 0.125 | – | 0.032 | 0.125
19 | CCC[C@H]1C[C@@H]2C[C@H]3[C@@H]4CCc5cc(O)ccc5[C@H]4CC[C@]3(C)[C@]2(O)C1 [Code 37969] | 25 | – | – | – | 4 | 3 | > 1 | > 1
20 | C[C@]12CC[C@@H]3c4ccc(O)cc4CC[C@H]3[C@@H]1C[C@H]1CCCC[C@]12O [Code 37469] | 23 | – | – | – | > 2 | 1 | > 4 | > 4
21 | CCC[C@@H]1C[C@@H]2C[C@H]3[C@@H]4CCC5=C(CCC(=O)C5)[C@H]4[C@@H](CC)C[C@]3(C)[C@]2(O)C1 [Code 38151] | 8 | – | – | – | > 1 | – | 0.125 | –
22 | CCC[C@@H]1Cc2cc(O)ccc2[C@H]2CC[C@@]3(C)[C@@H](C[C@H]4CCCC[C@]43O)[C@H]12 [Code 38515, (7-alpha,16-alpha,17-alpha)-7-propyl-16,24-cyclo-19,21-dinorchola-1,3,5(10)-trien-3,17-diol] | 10 | – | – | – | 4 | 16 | 0.096 | 0.19
